Converted amounts (≈) assume the structure as drawn. Each block holds one molecule with its values, some of them ahead of it.
How the values were obtained:
[1] = Antiviral activity against Gomphrena mosaic virus relative to control; assay type: functional, Gomphrena mosiac virus; parameters: concentration or dose not given beside the values
[2] = system: Staphylococcus aureus; assay: Antibacterial activity against Staphylococcus aureus assessed as zone of inhibition at 100 ppm; assay type: functional; settings: read-out: IZ
[3] = system: Escherichia coli; assay: Antibacterial activity against Escherichia coli assessed as zone of inhibition at 100 ppm; assay type: functional; settings: read-out: IZ
[4] = species on record: Mus musculus; assay: Sedative hypnotic activity in mouse; assay type: functional; parameters: concentration or dose not given beside the values
[5] = system: Proteus vulgaris; assay: Antimicrobial activity against Proteus vulgaris assessed as bacterial growth inhibition; assay type: functional
[6] = system: Citrobacter freundii; assay: Antimicrobial activity against Citrobacter freundii assessed as bacterial growth inhibition; assay type: functional
[7] = system: Pseudomonas aeruginosa; assay: Antimicrobial activity against Pseudomonas aeruginosa assessed as bacterial growth inhibition; assay type: functional
[8] = system: Proteus mirabilis; assay: Antimicrobial activity against Proteus mirabilis assessed as bacterial growth inhibition; assay type: functional
[9] = system: Escherichia coli; assay: Antimicrobial activity against Escherichia coli assessed as bacterial growth inhibition; assay type: functional
[10] = system: Staphylococcus saprophyticus; assay: Antimicrobial activity against Staphylococcus saprophyticus assessed as bacterial growth inhibition; assay type: functional
[11] = system: Staphylococcus aureus; assay: Antimicrobial activity against Staphylococcus aureus assessed as bacterial growth inhibition; assay type: functional
[12] = system: Bacillus subtilis; assay: Antimicrobial activity against Bacillus subtilis assessed as bacterial growth inhibition; assay type: functional
[13] = system: Staphylococcus epidermidis; assay: Antimicrobial activity against Staphylococcus epidermidis assessed as bacterial growth inhibition; assay type: functional
[14] = system: Candida albicans; assay: Antimicrobial activity against Candida albicans assessed as bacterial growth inhibition; assay type: functional
[15] = system: Mycolicibacterium phlei; assay: Antimicrobial activity against Mycobacterium phlei assessed as bacterial growth inhibition; assay type: functional
[16] = system: Klebsiella oxytoca; assay: Antimicrobial activity against Klebsiella oxytoca assessed as bacterial growth inhibition; assay type: functional
[17] = system: Micrococcus luteus; assay: Antimicrobial activity against Micrococcus luteus assessed as bacterial growth inhibition; assay type: functional
[18] = species on record: Homo sapiens; assay: Immunosuppressive activity in human T cell; assay type: functional, organism-based
[19] = species on record: Homo sapiens; assay: Immunosuppressive activity in human B cell; assay type: functional, organism-based
[20] = system: Mus musculus; assay: Analgesic activity in […] albino mouse at 20 mg/kg, po measured after 2 hrs by Tail-Flick technique relative to control; assay type: functional
[21] = CNS toxicity in po dosed mouse assessed as depression in CNS; assay type: organism-based; settings: in vivo
[22] = system: Rattus norvegicus; assay: Antiinflammatory activity in rat at assessed as reduction in paw edema at 200 mg/kg relative to control; assay type: functional

SMILES: COc1ccc(N/N=C(C)/N=N/n2cnc3ccccc3c2=O)cc1
Activity [1]: 15%

SMILES: Cc1nc2ccc(I)cc2c(=O)n1/N=C/c1cc(Cl)cc(Cl)c1O
zone of inhibition at 100 µg/mL [2]: 16 mm
zone of inhibition at 100 µg/mL [3]: 14 mm

SMILES: CN(C)CCC(c1ccc(Cl)cc1)c1ccccn1 (stereo not given) [CHLORPHENIRAMINE]
Activity [4]: 25%

SMILES: O=c1c2ccc(Cl)cc2nc(/C=C/c2ccccc2[N+](=O)[O-])n1-c1ccc(O)cc1
MIC [5]: 125 µg/mL (≈ 298 µM)
MIC [6]: 125 µg/mL (≈ 298 µM)
MIC [7]: 125 µg/mL (≈ 298 µM)
MIC [8]: 125 µg/mL (≈ 298 µM)
MIC [9]: 125 µg/mL (≈ 298 µM)
MIC [10]: 125 µg/mL (≈ 298 µM)
MIC [11]: 125 µg/mL (≈ 298 µM)
MIC [12]: 125 µg/mL (≈ 298 µM)
MIC [13]: 125 µg/mL (≈ 298 µM)
MIC [14]: 125 µg/mL (≈ 298 µM)
MIC [15]: 125 µg/mL (≈ 298 µM)
MIC [16]: 125 µg/mL (≈ 298 µM)
MIC [17]: 125 µg/mL (≈ 298 µM)

SMILES: Cc1nc2ccc(Br)cc2c(=O)n1/N=C/c1cc(Br)cc(Br)c1O
zone of inhibition at 100 µg/mL [2]: 16 mm
zone of inhibition at 100 µg/mL [3]: 14 mm

IC50 [18]: 2300 nM
IC50 [19]: 2930 nM
SMILES: Nc1nc2c(c(=O)[nH]1)C[C@@H](CCc1ccc(C(=O)N[C@@H](C[C@H](F)C(=O)O)C(=O)O)cc1)CN2

SMILES: COc1cc(/C=N/n2c(C)nc3ccc(I)cc3c2=O)cc(Br)c1O
zone of inhibition at 100 µg/mL [2]: 16 mm
zone of inhibition at 100 µg/mL [3]: 14 mm

SMILES: Cc1nc2ccc(Br)cc2c(=O)n1/N=C/c1cc(I)cc(I)c1O
zone of inhibition at 100 µg/mL [2]: 16 mm
zone of inhibition at 100 µg/mL [3]: 14 mm

MIC [5]: 125 µg/mL (≈ 260 µM)
MIC [6]: 125 µg/mL (≈ 260 µM)
MIC [7]: 125 µg/mL (≈ 260 µM)
MIC [8]: 125 µg/mL (≈ 260 µM)
MIC [9]: 125 µg/mL (≈ 260 µM)
MIC [10]: 125 µg/mL (≈ 260 µM)
MIC [11]: 125 µg/mL (≈ 260 µM)
MIC [12]: 125 µg/mL (≈ 260 µM)
MIC [13]: 125 µg/mL (≈ 260 µM)
MIC [14]: 125 µg/mL (≈ 260 µM)
MIC [15]: 125 µg/mL (≈ 260 µM)
MIC [16]: 125 µg/mL (≈ 260 µM)
MIC [17]: 125 µg/mL (≈ 260 µM)
SMILES: CCOC(=O)Oc1ccc(-n2c(/C=C/c3ccc(Cl)cc3)nc3cc(Cl)ccc3c2=O)cc1

IC50 [18]: 1410 nM
IC50 [19]: 2930 nM
SMILES: Nc1nc(N)c2c(CCCc3ccc(C(=O)N[C@@H](C[C@H](F)C(=O)O)C(=O)O)cc3)c[nH]c2n1

SMILES: CCN(CC)C(=S)Nn1c(SC)nc2ccccc2c1=O
Activity [20]: 67%

SMILES: CC(/N=N/n1cnc2ccccc2c1=O)=N\Nc1ccccc1
Activity [1]: 15%

MIC [5]: 125 µg/mL (≈ 263 µM)
MIC [6]: 125 µg/mL (≈ 263 µM)
MIC [7]: 125 µg/mL (≈ 263 µM)
MIC [8]: 125 µg/mL (≈ 263 µM)
MIC [9]: 125 µg/mL (≈ 263 µM)
MIC [10]: 125 µg/mL (≈ 263 µM)
MIC [11]: 125 µg/mL (≈ 263 µM)
MIC [12]: 125 µg/mL (≈ 263 µM)
MIC [13]: 125 µg/mL (≈ 263 µM)
MIC [14]: 125 µg/mL (≈ 263 µM)
MIC [15]: 125 µg/mL (≈ 263 µM)
MIC [16]: 125 µg/mL (≈ 263 µM)
MIC [17]: 125 µg/mL (≈ 263 µM)
SMILES: O=c1c2ccc(Cl)cc2nc(/C=C/c2ccccc2[N+](=O)[O-])n1-c1ccc(OCC2CO2)cc1 (stereo not given)

SMILES: CC(=O)Nc1ccc2nc(CO)n(-c3ccccc3C)c(=O)c2c1
LD50 [21]: > 1000 mg/kg

SMILES: CC(/N=N/n1cnc2ccccc2c1=O)=N\Nc1ccc(O)cc1
Activity [1]: 15%

SMILES: O=C(O)c1ccc(Cl)cc1-n1c(/C=C/c2ccc([N+](=O)[O-])cc2)nc2ccccc2c1=O
inhibition in vivo at 200 mg/kg [22]: 62.2%

SMILES: Cc1ccccc1-n1c(CF)nc2ccc(NC(=O)CO)cc2c1=O
LD50 [21]: > 1000 mg/kg

IC50 [18]: 5.67 nM
IC50 [19]: 8.08 nM
SMILES: C#CCN(Cc1ccc2nc(C)[nH]c(=O)c2c1)c1ccc(C(=O)N[C@@H](C[C@@H](F)C(=O)O)C(=O)O)cc1

SMILES: CC(=O)Nc1ccc2nc(CSCC(NC(C)=O)C(=O)O)n(-c3ccccc3C)c(=O)c2c1 (stereo not given)
LD50 [21]: > 1000 mg/kg

SMILES: CCN(CC)C(=S)Nn1c(-c2ccccc2)nc2ccccc2c1=O
Activity [20]: 58%

SMILES: CC(=O)Nc1ccc2nc(CF)n(-c3ccccc3CO)c(=O)c2c1
LD50 [21]: > 1000 mg/kg

SMILES: O=C(O)c1cc(Br)ccc1-n1c(/C=C/c2ccc(O)cc2)nc2ccccc2c1=O
inhibition in vivo at 200 mg/kg [22]: 62.2%

SMILES: CC(/N=N/n1cnc2ccccc2c1=O)=N\Nc1ccc(C)cc1
Activity [1]: 15%

SMILES: CC(=O)Nc1ccc2nc(C[S+](C)[O-])n(-c3ccccc3C)c(=O)c2c1 (stereo not given)
LD50 [21]: > 1000 mg/kg

SMILES: O=C(O)c1cc(Br)ccc1-n1c(/C=C/c2ccc([N+](=O)[O-])cc2)nc2ccccc2c1=O
inhibition in vivo at 200 mg/kg [22]: 62.2%

SMILES: O=c1c2ccc([N+](=O)[O-])cc2nc(/C=C/c2ccc(Cl)cc2)n1-c1ccc(O)cc1
MIC [5]: 125 µg/mL (≈ 298 µM)
MIC [6]: 125 µg/mL (≈ 298 µM)
MIC [7]: 125 µg/mL (≈ 298 µM)
MIC [8]: 125 µg/mL (≈ 298 µM)
MIC [9]: 125 µg/mL (≈ 298 µM)
MIC [10]: 125 µg/mL (≈ 298 µM)
MIC [11]: 125 µg/mL (≈ 298 µM)
MIC [12]: 125 µg/mL (≈ 298 µM)
MIC [13]: 125 µg/mL (≈ 298 µM)
MIC [14]: 125 µg/mL (≈ 298 µM)
MIC [15]: 125 µg/mL (≈ 298 µM)
MIC [16]: 125 µg/mL (≈ 298 µM)
MIC [17]: 125 µg/mL (≈ 298 µM)

SMILES: COc1cc(/C=N/n2c(C)nc3ccc(I)cc3c2=O)cc(I)c1O
zone of inhibition at 100 µg/mL [2]: 16 mm
zone of inhibition at 100 µg/mL [3]: 14 mm

SMILES: CC/C(C)=N/n1c(S)nc2sc3c(c2c1=O)CCCC3
Activity [20]: 72%

SMILES: O=C([O-])Cc1ccccc1Nc1c(Cl)cccc1Cl.[Na+] [DICLOFENAC SODIUM]
Activity [20]: 60%
